Experiments:
[1] = Solubility of the complexes in scCO2 by UV spectroscopy (Lambert-Beer law, reference data for THF solutions); assay type: physicochemical
Procedure: Die Löslichkeit der Komplexe IXa,b in scCO2 wurde mittels UV-Spektroskopie bestimmt und mit der Löslichkeit der unsubstituierten Stammverbindung [(dppe)Rh(hfacac)] IXe verglichen. IXe ist selbst bei hoher Dichte ρ und damit hoher Lösungskraft des scCO2 (Angew. Chem. 1978, 90, 748) nicht löslich (T = 50 °C, […]). Mit IXa und IXb werden hingegen bereits bei niedrigen Dichten (T= 50 °C, ρ = 90 bar, ρ = 0.55 g cm^-3) gelb-orange Lösungen erhalten. Aus den Absorptionsmaxima der UV-Spektren (siehe Abb. 1) läßt sich über das Lambert-Beer'sche-Gesetz mittels Vergleichsdaten für THF-Lösungen eine Sättigungskonzentration von 6.3 x 10^-5 M für IXa und 7.5 x 10^-5 M für IXb ermitteln. Zum Vergleich ist in Abb. 1 auch das UV-Spektrum des Komplexes IXf mit der Alkylphosphorverbindung 1,2-Bis(dicyclohexylphosphino)ethan (dcpe) aufgeführt. Die Löslichkeit von IXf in scCO2 beträgt unter identischen Bedingungen 1.1 x 10^-5 M, ist also um 5x bzw. 7x geringer als die von IXa und IXb. [formula]

[2] = scCO2, T = 50 °C, p = 345 bar; cited from earlier work

Row | Molecule | Löslichkeit in scCO2 [1] | maximale Löslichkeit [2] [µM]
1 | O=C([CH-]C(=O)C(F)(F)F)C(F)(F)F.[Rh+].c1ccc(P(CCP(c2ccccc2)c2ccccc2)c2ccccc2)cc1 [IXe, [(dppe)Rh(hfacac)], reference compound] | nicht löslich | –
2 | [(Duphos)Rh(η^4-C8H12)]^+ | – | 30

From patent EP0959987B1, “USE OF PERFLUOROALKYL SUBSTITUTED PHOSPHORUS COMPOUNDS AS LIGANDS FOR HOMOGENEOUS CATALYSIS IN SUPERCRITICAL CARBON DIOXIDE” (Studiengesellschaft Kohle mbH, priority 1997, dated 1998)
